# Measurements from US11497713B2, “Combination taxoid nanoemulsion with immunotherapy in cancer” (TargaGenix, Inc., priority 2017, dated 2022).
# What was measured:
# [1] = biological target: P-glycoprotein (P-gp) transporter (Homo sapiens, UniProt P08183); conditions: cited from earlier work
# [2] = system: CSCs purified from three human colon cancer cell lines, DLD-1, HTC-116, and HT-29; conditions: cited from earlier work
# [3] = system: human CFPAC-1 pancreatic tumor xenograft; experiment: Human CFPAC-1 pancreatic tumor xenograft efficacy (FIG. 2); assay type: in vivo, mice; conditions: 240 mg/kg or 300 mg/kg total dose
# Chain of P-glycoprotein (P-gp) transporter (P08183 whole entry): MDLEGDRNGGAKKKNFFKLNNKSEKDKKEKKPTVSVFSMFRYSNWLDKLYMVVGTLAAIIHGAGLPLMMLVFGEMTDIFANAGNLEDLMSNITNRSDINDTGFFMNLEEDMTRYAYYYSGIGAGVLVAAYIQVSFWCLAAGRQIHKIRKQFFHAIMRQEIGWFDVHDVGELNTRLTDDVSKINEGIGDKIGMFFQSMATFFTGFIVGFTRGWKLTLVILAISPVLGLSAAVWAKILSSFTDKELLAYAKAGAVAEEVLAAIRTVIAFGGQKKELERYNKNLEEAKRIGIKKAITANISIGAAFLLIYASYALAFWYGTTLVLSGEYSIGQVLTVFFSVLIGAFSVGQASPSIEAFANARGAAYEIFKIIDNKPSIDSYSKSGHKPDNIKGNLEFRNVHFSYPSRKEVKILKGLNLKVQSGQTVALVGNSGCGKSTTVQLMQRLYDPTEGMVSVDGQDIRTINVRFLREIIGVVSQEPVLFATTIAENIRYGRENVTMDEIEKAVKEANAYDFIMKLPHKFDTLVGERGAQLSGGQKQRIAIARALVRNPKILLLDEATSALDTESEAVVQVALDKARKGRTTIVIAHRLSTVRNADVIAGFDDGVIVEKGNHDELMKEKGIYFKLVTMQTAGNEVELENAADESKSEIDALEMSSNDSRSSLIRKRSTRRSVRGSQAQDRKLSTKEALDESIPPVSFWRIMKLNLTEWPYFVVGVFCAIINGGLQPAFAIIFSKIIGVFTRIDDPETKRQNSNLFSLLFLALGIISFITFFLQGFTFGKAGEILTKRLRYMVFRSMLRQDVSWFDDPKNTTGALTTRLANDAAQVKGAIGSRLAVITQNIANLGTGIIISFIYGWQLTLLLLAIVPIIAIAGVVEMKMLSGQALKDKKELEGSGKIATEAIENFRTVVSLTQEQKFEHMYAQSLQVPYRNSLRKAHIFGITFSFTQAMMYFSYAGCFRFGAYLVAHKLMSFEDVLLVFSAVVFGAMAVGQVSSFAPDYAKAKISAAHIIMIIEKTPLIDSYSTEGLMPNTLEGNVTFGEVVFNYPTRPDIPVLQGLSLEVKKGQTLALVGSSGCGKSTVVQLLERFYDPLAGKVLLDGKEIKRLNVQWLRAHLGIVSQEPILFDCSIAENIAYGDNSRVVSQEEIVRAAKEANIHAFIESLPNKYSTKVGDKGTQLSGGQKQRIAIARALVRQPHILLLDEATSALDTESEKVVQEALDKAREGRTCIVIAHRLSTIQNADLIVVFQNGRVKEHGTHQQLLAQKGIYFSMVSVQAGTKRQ
smiles,measurement,setting,value
"CC/C=C\C/C=C\C/C=C\C/C=C\C/C=C\C/C=C\CCC(=O)O[C@@H](C(=O)O[C@H]1C[C@@]2(O)[C@@H](OC(=O)c3ccccc3)[C@@H]3[C@]4(OC(C)=O)CO[C@@H]4C[C@H](O)[C@@]3(C)C(=O)[C@H](OC(=O)C3CC3)C(=C1C)C2(C)C)[C@H](C=C(C)C)NC(=O)OC(C)(C)C [DHA-SBT-1214, Docosahexaenoic acid conjugate of SBT-1214]",substrate for MDR mechanisms such as P-gp over-expression,[1],not a substrate
same,expression of stem related genes,[2],down-regulate stem related genes
same,weight loss,[3],negligible
